“And” between values parts separate entries of the source, which are not always exact repeats. Equal values may be shown once. Read-outs that look alike come from different tables or passages of the source.

In data set [1] the test system is HeLa FlpIn ENT2 cell line. The settings on record: 2 minutes.
The next data set has as its system HeLa S2 cell line. Kind of data set: Functional assessment: NBMPR block of [3H]uridine uptake in HeLa S2 cells. The settings on record: 100 nM NBMPR, 2 minutes. Type of data set: cell-based, human.
The target in data set [2] is T1, ENT2 (Homo sapiens, UniProt Q14542).
T1 sequence (Q14542 1-456): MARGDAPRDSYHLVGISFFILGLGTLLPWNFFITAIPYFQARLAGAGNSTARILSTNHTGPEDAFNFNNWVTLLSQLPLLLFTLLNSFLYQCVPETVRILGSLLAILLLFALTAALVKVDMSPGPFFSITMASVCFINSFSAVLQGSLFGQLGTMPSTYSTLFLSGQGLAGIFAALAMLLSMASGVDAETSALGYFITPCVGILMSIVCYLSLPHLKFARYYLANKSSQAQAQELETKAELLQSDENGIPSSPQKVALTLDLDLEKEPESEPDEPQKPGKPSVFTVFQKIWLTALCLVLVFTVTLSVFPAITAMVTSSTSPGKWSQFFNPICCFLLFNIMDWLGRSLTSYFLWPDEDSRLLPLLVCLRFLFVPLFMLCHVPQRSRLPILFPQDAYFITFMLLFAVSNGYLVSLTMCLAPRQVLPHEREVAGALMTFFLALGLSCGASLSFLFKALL
The data set can be described thus: Inhibition of [3H]uridine uptake into HeLa FlpIn cells overexpressing hENT2. Type of data set: cell-based. The settings on record: for inhibition at 20 µM: HeLa.

Data set [3] has as its target T2, ENT1 (Homo sapiens, UniProt Q99808).
T2 sequence (Q99808 1-456): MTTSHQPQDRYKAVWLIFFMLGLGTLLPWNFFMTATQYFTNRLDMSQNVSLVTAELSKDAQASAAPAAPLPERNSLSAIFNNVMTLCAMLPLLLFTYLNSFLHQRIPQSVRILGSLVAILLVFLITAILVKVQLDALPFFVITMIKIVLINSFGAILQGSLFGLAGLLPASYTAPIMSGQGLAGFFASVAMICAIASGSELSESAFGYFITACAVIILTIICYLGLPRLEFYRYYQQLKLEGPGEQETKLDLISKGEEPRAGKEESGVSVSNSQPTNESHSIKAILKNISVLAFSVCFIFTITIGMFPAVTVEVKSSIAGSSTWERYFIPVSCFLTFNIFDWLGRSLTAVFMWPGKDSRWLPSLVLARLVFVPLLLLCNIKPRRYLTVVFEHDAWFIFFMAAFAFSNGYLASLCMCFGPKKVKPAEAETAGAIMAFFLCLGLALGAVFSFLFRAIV
The data set can be described thus: Inhibition of [3H]uridine uptake into WT HeLa. The format is cell-based. The settings on record: for inhibition at 20 µM: HeLa.

For data set [4] the following is noted: ref Table S8, cited from earlier work.
Data set [5] deals with T2, ENT1. Kind of data set: Kinetics of radiolabeled uridine uptake, ENT1 cell line. The format is cell-based. The settings on record: 5 min uptake, pH 7.4.
Data set [6] has as its target T1, ENT2. The settings on record: 5 min uptake, pH 7.4.
Setting [7] is: read-out: ENT2 % Inhibition (20μM).
Where [8] appears, read: read-out: ENT1 % Inhibition (20μM).
[9] abbreviates: read-out: ENT2 inhibition of transport activity (Spectrum screen, text).
Setting [10] is: read-out: ENT1 inhibition of uridine uptake (Spectrum screen, text).

For the compound `O=[N+]([O-])c1ccc(CSc2ncnc3c2ncn3C2OC(CO)C(O)C2O)cc1` (stereo not shown) [NBMPR, nitrobenzylthioinosine], in data set [1] (100 nM NBMPR), the “total [3H]uridine uptake blocked” value is ~ 55%. In data set [1] (100 μM NBMPR), the “total [3H]uridine uptake reduced” value is recorded as ~ 80%. For the same compound, the “reduction of [3H]uridine uptake” value with HeLa S2 cell line was 65–75%.
Regarding `CC(=O)N1CCN(c2ccc(OCC3COC(Cn4ccnc4)(c4ccc(Cl)cc4Cl)O3)cc2)CC1` (stereo not shown) [ketoconazole], the figures for the 50% inhibitory concentration (IC50) against ENT2 [2] and against ENT1 [3] were 22.8 ± 0.7 µM and 7.2 ± 1.2 µM, respectively. The values for the inhibition at 20 µM at ENT2 [2] (setting [7]) and at ENT1 [3] (setting [8]) were 89.4% and 98.4%, respectively. Also, in data set [4] (converted from ng/mL), the “human plasma levels (molar)” value is 6.6 µM and 11.3 µM. For the same compound, in data set [4] (documented clinical concentrations), the human plasma levels was 3500 ng/mL and 6000 ng/mL.
For `O=c1c(O)c(-c2cc(O)c(O)c(O)c2)oc2cc(O)cc(O)c12` [myricetin], the IC50 at ENT2 [2] was found to be 28.2 ± 1.6 µM; against ENT1 [3] it was 47.4 ± 1.7 µM. Moreover, the inhibition at 20 µM on ENT1 [3] (setting [8]) stood at 82.4%.
Turning to `C[C@@H]1O[C@@H](O[C@H]2[C@H](Oc3cc(O)c4c(c3)O[C@H](c3ccc(O)cc3)CC4=O)O[C@H](CO)[C@@H](O)[C@@H]2O)[C@H](O)[C@H](O)[C@H]1O` [naringin], the IC50 against ENT2 [2] turned out to be 266 ± 81.5 µM; against ENT1 [3], 101 ± 8.9 µM. Besides, the inhibition at 20 µM on ENT2 [2] (setting [7]) came out at 8.5%; on ENT1 [3] (setting [8]) it was 24.4%.
The corresponding values for `O=c1c(O)c(-c2ccc(O)c(O)c2)oc2cc(O)cc(O)c12` [quercetin] are 117 ± 24.6 µM, 20.6 ± 6.8 µM, 84.3% and 53.1%.
For the compound `COc1ccc(-c2cc(=O)c3c(OC)c(OC)c(OC)cc3o2)cc1OC` [sinensetin], the IC50 against ENT2 [2] was 22.2 ± 2.2 µM; at ENT1 [3] it was 1.25 ± 0.3 µM. In addition, the inhibition at 20 µM on ENT2 [2] (setting [7]) was 82.5%; at ENT2 [2] (setting [9]), 35%; at ENT1 [3] (setting [8]), 95.9%; at ENT1 [3] (setting [10]), approximately 80%.
Take `C=CC[C@@H]1/C=C(\C)C[C@H](C)C[C@H](OC)[C@H]2O[C@@](O)(C(=O)C(=O)N3CCCC[C@H]3C(=O)O[C@H](/C(C)=C/[C@@H]3CC[C@@H](O)[C@H](OC)C3)[C@H](C)[C@@H](O)CC1=O)[C@H](C)C[C@@H]2OC` [tacrolimus]: the inhibition at 20 µM on ENT2 [2] (setting [9]) was 35%; on ENT1 [3] (setting [10]), approximately 80%.
With `O=c1ccn([C@@H]2O[C@H](CO)[C@@H](O)[C@H]2O)c(=O)[nH]1` [uridine], on ENT1 [5], the “Jmax, maximal rate of uridine transport” value was 20.2 ± 5.1 pmol·cm^−2·min^−1 and the “Kt, Michaelis constant for uridine” value was 37.7 ± 12.9 µM. Also, on ENT2 [6], the “Kt, Michaelis constant for uridine” value turned out to be 119.1 ± 28.9 µM.

(Values after paper PMC12486301 (The Journal of pharmacology and experimental therapeutics, 2025).)
